The source of these data is patent US8951999B2, “Compounds” (Orexo AB, priority 2009, dated 2015).

For this test, the target named is T1, recombinant human mPGES-1 (Homo sapiens, UniProt O14684).
T1 sequence (O14684 1-152): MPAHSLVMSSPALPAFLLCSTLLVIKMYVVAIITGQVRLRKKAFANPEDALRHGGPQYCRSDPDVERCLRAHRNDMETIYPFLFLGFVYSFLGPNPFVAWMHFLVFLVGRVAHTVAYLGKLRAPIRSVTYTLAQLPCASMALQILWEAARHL
As to the kind of experiment: Assay A: mPGES-1 enzyme assay (HTRF detection of PGE2). In kind it is biochemical. The conditions noted are these: biological assay A (compounds 1-41, 54, 55, 62, 73); PGE2 formation from PGH2, HTRF; read-out: mPGES-1 inhibitory effect IC50. The text has this: Assay A: mPGES-1 Enzyme Assay
The basis of the assay used is to measure the inhibition of microsomal prostaglandin E2 synthase-1 (mPGES-1) dependent prostaglandin (PG) E2 formation from PGH2 by different compounds. Thus, the formation of PGE2 is used as signal and a lowering of this signal can be interpreted as inhibition of mPGES-1. Similar assays to measure inhibition of mPGES-1 have previously been described in the literature.
• Glutathione (Sigma, G-4251) • Freeze culture in Rosetta E coli expression strain. • LB growth media with Ampillicillin (Amp) final concentration in culture 50 μg/mL • Chloroamphenicol stock 34 mg/mL (chloro) final concentration in culture 34 μg/mL • Sterile growth flasks for 500 mL-1 liter cultures • 0.1 M KPi buffer pH 7.4 • 9.25% HCl • PGH2 (0.25 mM) • Fe (II) Cl2 tetrahydrate, 99% (Sigma, 220229) • 384-well plate with compounds • 96-well plate, polypropylene (Thermo fast 96 skirted VWR) • 384-well plate polypropylene PCR plate (Greiner 785201) • Greiner 384-well plate pp (In vitro cat. no. 781280) • Adhesive sealing film for 96-well plates (Sigma-Aldrich) • Aluminium foil (PCR foil, 310-0030-127-471 from Labora) • PBS (GIBCO 14040) • Prostaglandin E2 Assay (Cisbio, cat. no. 62P2APEC) • Biomek FX robot (Beckman Coulter) • Biomek NX robot (Beckman Coulter) • Multidrop; micro or combi (ThermoLabsystems) • Plate reader: Safire2 (Tecan)
Microsomes from Rosetta E. coli bacteria expressing recombinant human mPGES-1 can be derived as described below:
Inoculate 5 mL LB with Amp and Chloro with bacteria from freeze culture. Incubate over night at 37° C. with 200 rpm. Thereafter, inoculate 500-800 mL LB containing Amp and Chloro with the 5 mL on culture and grow to OD640 of 0.6-0.8. Chill the culture to +4° C. before induction. Induce the culture with IPTG at a final concentration of 400 μM. Express the protein at room temp 18-23° C. with 200 rpm shaking over night.
The following steps can be performed on the following day: • 1. Spin down the cells in 250 mL centrifuge flasks for 15 min at 7000 rpm • 2. Dissolve the pellet from 250 mL culture in 12.5 mL homogenization buffer • 3. Disintegrate the cells by sonication, 4×10 seconds at 35% amplitude • 4. Add 2.5 mL MgCl2 (100 mM) and DNase 12.5 μL (0.8 mg/mL) and incubate on ice for 30 min • 5. Spin down the bacteria debris and save the supernatant, 7000 rpm for 15 min • 6. Isolate the protein containing membranes in the supernatant by ultracentrifugation 45000×g for 1 hour. • 7. Discard the supernatant and dissolve the pellet in 20 mM KPi buffer and aliquot the enzyme and store aliquots at −80° C.
Before each experiment is performed an aliquot of the enzyme is thawed and it can then be dissolved in 0.1 M KPi pH 7.4 buffer containing 2.5 mM GSH. 50 μL of this enzyme solution is subsequently dispensed in a 384-well plate at room temperature. 0.5 μL of the inhibitor dissolved in DMSO is thereafter added to each well and incubated for 25 minutes at room temperature. Subsequently, 2 μL of PGH2 dissolved in an appropriate solvent is added to each well and after one minute at room temperature, the acidified stop solution containing FeCl2 is added. 4 μL of the total volume is transferred to a separate plate and diluted 750-fold in two separate steps before quantification of PGE2.
In order to quantitate the amount of PGE2 that has been formed, a homogenous time resolved fluorescent (HTRF) detection of PGE2 can be performed by the use of a commercially available kit from CisBio essentially according to the manufacturer's protocol. […]
Background: Time-resolved FRET reads energy transfer from a long-lived donor to a nearby acceptor.
In general, IC50 refers to the concentration needed to halve the response being measured. With `COc1ccc(NC(=O)c2cc(CNC(=O)C(C)(C)C)ccc2Cl)cc1C(=O)Nc1cc(C(F)(F)F)ccn1` [Example 8, N-[4-Methoxy-3-(4-trifluoromethyl-pyridin-2-yl)aminocarbonyl-phenyl]-2-chloro-5-(tert-butylcarbonylamino)methyl-benzamide], the IC50 is 7 nM. As for `COc1ccc(NC(=O)c2cc(CNC(=O)c3c(F)ccc(F)c3Cl)ccc2Cl)cc1C(=O)Nc1ccc(Br)cc1` [Example 23], the IC50 worked out at 1 nM. With `CC(C)(C(=O)NCc1ccc(Cl)c(C(=O)Nc2cnc(OCC(F)F)c(C(=O)Nc3ccc(Br)cc3)c2)c1)C(F)(F)F` [Example 73, N-[2-(2,2-Difluoroethyl)oxy-3-(4-bromophenyl)aminocarbonyl-pyridin-5-yl]-2-chloro-5-[(2,2,2-trifluoro-1,1-dimethyl-ethyl)carbonylamino]methyl-benzamide], the IC50 was determined as 7 nM. The figure for `COc1ccc(NC(=O)c2cc(CNC(=O)C(C)(C)C)ccc2Cl)cc1C(=O)NC1CC1` [Example 35] is around 500 nM; for `O=C(NCc1ccc(Cl)c(C(=O)Nc2ccc(Cl)c(C(=O)NC3CC3)c2)c1)c1ccc(Cl)s1` [Example 10, N-[4-Chloro-3-cyclopropylaminocarbonyl-phenyl]-2-chloro-5-(5-chloro-thien-2-yl)carbonylaminomethyl-benzamide] it is around 900 nM. Turning to `CN(C)c1ccc(NC(=O)c2cc(CNC(=O)C(C)(C)C)ccc2Cl)cc1C(=O)N[C@H]1CC[C@H](C(F)(F)F)CC1` [Example 62, N-[4-(dimethylamino)-3-(trans-4-trifluoromethylcyclohexyl)aminocarbonyl-phenyl]-2-chloro-5-(tert-butylcarbonylamino)methyl-benzamide], the concentration for half-maximal inhibition (IC50) stood at 11 nM. As for `CC(C)(C)C(=O)NCc1ccc(Cl)c(C(=O)Nc2ccc(OCC(F)(F)F)c(C(=O)NCC3CC3)c2)c1` [Example 41], the IC50 came out at 3 nM. On to `COc1ccc(NC(=O)c2cc(CNC(=O)C3(O)CC3)ccc2Cl)cc1C(=O)Nc1ccc(Br)cc1` [Example 28], for which the half-inhibitory concentration (IC50) turned out to be 4 nM. For the compound `COc1ccc(NC(=O)c2cc(CNC(=O)C(C)(C)C)ccc2Cl)cc1C(=O)N[C@H]1CC[C@@H](C(F)(F)F)CC1` [Example 19], the IC50 was found to be 4 nM. The same measure for `CC(C)(C)C(=O)NCc1ccc(Cl)c(C(=O)Nc2ccc(F)c(C(=O)Nc3ccc(Br)cc3)c2)c1` [Example 2, N-[4-Fluoro-3-(4-bromophenyl)aminocarbonyl-phenyl]-2-chloro-5-(tert-butylcarbonylamino)methyl-benzamide]: 4 nM; for `CCC(C)(CC)C(=O)NCc1ccc(Cl)c(C(=O)Nc2ccc(OC)c(C(=O)Nc3ccc(Br)cc3)c2)c1` [Example 34]: 2 nM. For `COc1ccc(NC(=O)c2cc(CNC(=O)C(C)(C)C)ccc2Cl)cc1C(=O)Nc1ccc(Br)cc1` [Example 4, N-[4-Methoxy-3-(4-bromophenyl)aminocarbonyl-phenyl]-2-chloro-5-(tert-butylcarbonylamino)methyl-benzamide], the IC50 turned out to be 1 nM. Regarding `COc1ccc(NC(=O)c2cc(CNC(=O)C3CCCCC3C)ccc2Cl)cc1C(=O)Nc1ccc(Br)cc1` (stereo not drawn) [Example 29], the IC50 came to 2 nM.

Turning to `COc1ccc(NC(=O)c2cc(CNC(=O)C(C)(C)C)ccc2Cl)cc1C(=O)NC1CCCCC1` [Example 17], the IC50 was 16 nM. The same measure for `COc1ccc(NC(=O)c2cc(CNC(=O)C3(C(F)(F)F)CCCC3)ccc2Cl)cc1C(=O)Nc1ccc(Br)cc1` [Example 22]: 2 nM.
